Target: T1, Human SGLT3 (Homo sapiens, UniProt Q9NY91)
T1 construct: expressed in transfected cells; host or cells: oocytes (from Nasco), injected with mRNA
T1 sequence (Q9NY91 1-659): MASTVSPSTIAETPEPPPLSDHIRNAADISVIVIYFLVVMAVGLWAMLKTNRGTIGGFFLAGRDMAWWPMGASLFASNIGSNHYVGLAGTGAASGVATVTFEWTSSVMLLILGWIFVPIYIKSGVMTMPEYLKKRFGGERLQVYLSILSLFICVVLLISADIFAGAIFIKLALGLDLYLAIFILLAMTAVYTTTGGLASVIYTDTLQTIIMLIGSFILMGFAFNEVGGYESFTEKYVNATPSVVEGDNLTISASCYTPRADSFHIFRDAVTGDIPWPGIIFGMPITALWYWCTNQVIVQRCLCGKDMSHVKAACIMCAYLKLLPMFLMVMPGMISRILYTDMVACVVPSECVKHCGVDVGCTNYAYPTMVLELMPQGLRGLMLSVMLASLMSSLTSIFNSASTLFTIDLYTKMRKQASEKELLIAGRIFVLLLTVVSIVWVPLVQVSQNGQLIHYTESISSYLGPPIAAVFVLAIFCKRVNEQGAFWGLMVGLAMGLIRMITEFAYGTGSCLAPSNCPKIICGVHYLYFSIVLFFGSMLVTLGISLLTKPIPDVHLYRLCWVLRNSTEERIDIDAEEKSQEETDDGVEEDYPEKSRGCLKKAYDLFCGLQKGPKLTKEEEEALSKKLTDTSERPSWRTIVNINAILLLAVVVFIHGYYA
Assay: Two-electrode voltage clamp recording of oocytes expressing human SGLT3 (DNJ-induced currents)
Format: cell-based
Conditions: 3 mM
Procedure: Oocytes were obtained from Nasco (Fort Atkinson, Wisconsin, USA). Stage V–VI oocytes were injected with 50 nl of either human SGLT3 mRNA (at 1 ng/nl) or distilled water (control) and incubated at 18°C in a calcium-free solution (92 mM NaCl, 2 mM KCl, 1 mM MgCl2, 5 mM HEPES, 0.05 mg/ml gentamicin at pH 7.5) for 4–6 days before recording. The extracellular recording solution contained 92 mM NaCl, 2 mM KCl, 1.8 mM CaCl2, 1 mM MgCl2, and 5 mM HEPES at pH 7.5. Injected oocytes were impaled with 2 microelectrodes filled with 3 M KCl (resistance of ∼0.5–3 MΩ) and voltage clamped to −120 mV, at which continuous recordings were made (filtered at 5 kHz and sampled at 625 Hz). To establish the baseline in the absence of agonist, oocytes were first perfused for 85 seconds with a control buffer (92 mM NaCl, 2 mM KCl, 1.8 mM CaCl2, 1 mM MgCl2, 5 mM HEPES at pH 7.5). […] Finally, phlorizin (3 mM) was applied in the presence of 50 µM DNJ for 160 seconds. All experiments were performed at 22°C. Currents in the presence of 50 µM DNJ were subtracted from leak currents (currents in control buffer alone) to obtain DNJ-induced currents (IDNJ). Effects of compounds were calculated as: % Inhibition = 100×(IDNJ−Icmpd)/IDNJ, where Icmpd is the DNJ-induced and leak-subtracted current in the presence of a compound or DMSO. Due to lack of effect at the highest dose tested, a dose-response relationship was not examined.

SMILES: O=C(CCc1ccc(O)cc1)c1c(O)cc(O)cc1O[C@@H]1O[C@H](CO)[C@@H](O)[C@H](O)[C@H]1O [phlorizin, reference compound]
- inhibition at 3000 µM (SGLT3-injected oocytes, 50 µM DNJ, n = 14, P<0.05): 73.5 ± 4.2%
- effect on currents in sham-injected oocytes (sham (water)-injected oocytes, in the presence of 50 µM DNJ): did not affect currents

— PMC3280264 (PLoS ONE, 2012)
